Test results from ChEMBL document CHEMBL4229532, “A series of camptothecin prodrugs exhibit HDAC inhibition activity” (Bioorg Med Chem, 2018).
pIC50: −log10 of the molar value. The source made the active and inactive calls. No cut-off for these calls is given here.

Biological target: Histone deacetylase 3 (Homo sapiens, UniProt O15379)
Assay: Inhibition of recombinant human HDAC3 expressed in baculovirus infected High5 insect cells using Ac-Lys-Tyr-Lys(epsilon-acetyl)-AMC as substrate after 24 hrs by fluorescence assay
Conditions: not given

Chain of Histone deacetylase 3 (O15379 whole entry): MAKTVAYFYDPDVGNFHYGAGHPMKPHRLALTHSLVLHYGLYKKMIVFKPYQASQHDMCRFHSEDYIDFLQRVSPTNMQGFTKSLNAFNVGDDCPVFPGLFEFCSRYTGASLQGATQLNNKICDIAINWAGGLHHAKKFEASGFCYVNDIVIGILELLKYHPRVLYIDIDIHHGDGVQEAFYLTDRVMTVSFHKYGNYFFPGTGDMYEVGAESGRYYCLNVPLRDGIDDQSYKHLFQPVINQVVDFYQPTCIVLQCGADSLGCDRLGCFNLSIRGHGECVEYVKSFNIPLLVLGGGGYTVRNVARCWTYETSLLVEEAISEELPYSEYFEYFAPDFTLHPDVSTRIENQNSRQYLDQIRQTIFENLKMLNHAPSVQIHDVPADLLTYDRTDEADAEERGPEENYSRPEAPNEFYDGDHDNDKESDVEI

Going from `CCc1c2c(nc3ccc(O)cc13)-c1cc3c(c(=O)n1C2)COC(=O)[C@@]3(CC)OC(=O)CCCCCCC(=O)NO` to `CCc1c2c(nc3ccc(O)cc13)-c1cc3c(c(=O)n1C2)COC(=O)[C@@]3(CC)OC(=O)CCCCCCCC(=O)NO`, the pIC50 falls from 7.00 to 6.00 (1.00 log units).

For `CCc1c2c(nc3ccc(O)cc13)-c1cc3c(c(=O)n1C2)COC(=O)[C@@]3(CC)OC(=O)CCCCCCCCCCC(=O)NO`, the pIC50 was 4.93.

Biological target: T1, Protein deacetylase HDAC6 (Homo sapiens) (UniProt Q9UBN7)
T1 sequence (whole entry): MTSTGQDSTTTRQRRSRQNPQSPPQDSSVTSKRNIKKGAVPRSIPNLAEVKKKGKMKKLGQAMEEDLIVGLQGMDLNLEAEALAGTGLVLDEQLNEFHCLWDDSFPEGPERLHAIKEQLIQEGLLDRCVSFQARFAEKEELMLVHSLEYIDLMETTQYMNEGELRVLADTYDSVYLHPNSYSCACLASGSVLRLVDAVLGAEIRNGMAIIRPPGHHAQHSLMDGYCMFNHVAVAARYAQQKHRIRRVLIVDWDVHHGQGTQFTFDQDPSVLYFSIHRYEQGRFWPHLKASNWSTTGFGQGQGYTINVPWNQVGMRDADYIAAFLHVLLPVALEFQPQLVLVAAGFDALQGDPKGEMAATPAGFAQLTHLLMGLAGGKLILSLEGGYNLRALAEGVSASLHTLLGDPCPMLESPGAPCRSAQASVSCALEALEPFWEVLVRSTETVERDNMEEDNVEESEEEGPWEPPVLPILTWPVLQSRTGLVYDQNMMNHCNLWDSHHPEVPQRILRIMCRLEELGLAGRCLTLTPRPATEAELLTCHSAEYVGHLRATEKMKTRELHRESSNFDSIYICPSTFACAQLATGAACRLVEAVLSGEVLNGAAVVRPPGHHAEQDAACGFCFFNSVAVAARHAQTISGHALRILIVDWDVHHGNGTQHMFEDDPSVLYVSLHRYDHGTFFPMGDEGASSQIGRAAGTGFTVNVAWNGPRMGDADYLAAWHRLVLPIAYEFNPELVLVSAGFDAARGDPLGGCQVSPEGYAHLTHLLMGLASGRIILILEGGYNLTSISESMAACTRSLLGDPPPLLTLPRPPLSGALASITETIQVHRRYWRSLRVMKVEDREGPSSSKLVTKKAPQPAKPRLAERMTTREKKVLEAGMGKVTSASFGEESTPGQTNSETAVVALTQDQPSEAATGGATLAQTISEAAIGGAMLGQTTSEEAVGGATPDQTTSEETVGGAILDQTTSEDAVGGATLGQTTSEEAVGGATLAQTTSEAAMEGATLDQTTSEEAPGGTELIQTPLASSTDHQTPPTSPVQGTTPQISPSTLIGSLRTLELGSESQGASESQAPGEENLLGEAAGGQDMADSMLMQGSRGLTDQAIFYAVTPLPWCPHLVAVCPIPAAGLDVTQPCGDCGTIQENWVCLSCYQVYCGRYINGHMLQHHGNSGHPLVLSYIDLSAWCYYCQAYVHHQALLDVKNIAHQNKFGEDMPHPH
Assay: Inhibition of HDAC6 in human HCT116 cells assessed as increase in acetylated tubulin levels at 1 to 10 uM after 24 hrs by Western blot analysis
Type: cell-based
Conditions: not given

In the case of `CCc1c2c(nc3ccc(O)cc13)-c1cc3c(c(=O)n1C2)COC(=O)[C@@]3(CC)OC(=O)CCCCCCC(=O)NO`, the inhibition was “inactive”.

System: not listed separately
Assay: Stability of the compound in mouse plasma at 50 uM by HPLC analysis
Type: ADME, cell-free
Conditions: not given

With `CCc1c2c(nc3ccc(O)cc13)-c1cc3c(c(=O)n1C2)COC(=O)[C@@]3(CC)OC(=O)CCCCCCC(=O)NO` the Stability was “Unstable”.

System: not listed separately
Assay: Stability of the compound in human plasma at 50 uM by HPLC analysis
Type: ADME, cell-free
Conditions: not given

In the case of `CCc1c2c(nc3ccc(O)cc13)-c1cc3c(c(=O)n1C2)COC(=O)[C@@]3(CC)OC(=O)CCCCCCC(=O)NO`, the Stability was “Stable”.

System: HCT-116
Assay: Antiproliferative activity against human HCT116 cells after 72 hrs by SRB assay
Type: functional, cell-based
Conditions: HCT-116, 72 h

Going from `CCc1c2c(nc3ccc(OC(=O)N4CCC(N5CCCCC5)CC4)cc13)-c1cc3c(c(=O)n1C2)COC(=O)[C@]3(O)CC` [IRINOTECAN] to `CCc1c2c(nc3ccc(O)cc13)-c1cc3c(c(=O)n1C2)COC(=O)[C@]3(O)CC` [7-ETHYL-10-HYDROXYCAMPTOTHECIN], the pIC50 rises from 5.79 to 9.11 (3.32 log units). The second is the more potent here.

Compound `CCc1c2c(nc3ccc(O)cc13)-c1cc3c(c(=O)n1C2)COC(=O)[C@@]3(CC)OC(=O)CCCCCCC(=O)NO` has a pIC50 of 7.06.

System: not listed separately
Assay: Stability of the compound in PBS at pH 6 at 50 uM by HPLC analysis
Type: physicochemical
Conditions: buffer, pH 6, 50 µM

In the case of `CCc1c2c(nc3ccc(O)cc13)-c1cc3c(c(=O)n1C2)COC(=O)[C@@]3(CC)OC(=O)CCCCCCC(=O)NO`, the Stability was “Stable”.

Biological target: T2, Protein deacetylase HDAC6 (Homo sapiens, UniProt Q9UBN7)
T2 sequence (Q9UBN7 whole entry): T1 sequence (whole entry)
Assay: Inhibition of recombinant human HDAC6 expressed in baculovirus infected High5 insect cells using Boc-Lys (epsilon-acetyl)-AMC as substrate after 3 hrs by fluorescence assay
Conditions: not given

`CCc1c2c(nc3ccc(O)cc13)-c1cc3c(c(=O)n1C2)COC(=O)[C@@]3(CC)OC(=O)CCCCCCC(=O)NO` and `CCc1c2c(nc3ccc(O)cc13)-c1cc3c(c(=O)n1C2)COC(=O)[C@@]3(CC)OC(=O)CCCCCCCC(=O)NO` are within 0.2 log units of each other in pIC50: 6.60 for the first, 6.68 for the second.

In the case of `CCc1c2c(nc3ccc(O)cc13)-c1cc3c(c(=O)n1C2)COC(=O)[C@@]3(CC)OC(=O)CCCCCCCCCCC(=O)NO`, the pIC50 was 5.97.

Biological target: T1, Protein deacetylase HDAC6 (Homo sapiens)
Assay: Inhibition of HDAC6 in human A549 cells assessed as increase in acetylated tubulin levels at 1 to 10 uM after 24 hrs by Western blot analysis
Type: cell-based
Conditions: not given

In the case of `CCc1c2c(nc3ccc(O)cc13)-c1cc3c(c(=O)n1C2)COC(=O)[C@@]3(CC)OC(=O)CCCCCCC(=O)NO`, the inhibition was “inactive”.

System: A549
Assay: Antiproliferative activity against human A549 cells after 72 hrs by SRB assay
Type: functional, cell-based
Conditions: A549, 72 h

Compared with `CCc1c2c(nc3ccc(OC(=O)N4CCC(N5CCCCC5)CC4)cc13)-c1cc3c(c(=O)n1C2)COC(=O)[C@]3(O)CC` [IRINOTECAN], `CCc1c2c(nc3ccc(O)cc13)-c1cc3c(c(=O)n1C2)COC(=O)[C@]3(O)CC` [7-ETHYL-10-HYDROXYCAMPTOTHECIN] is higher in pIC50: 5.73 for the first, 8.13 to 8.79 for the second. The second is the more potent here.

In the case of `CCc1c2c(nc3ccc(O)cc13)-c1cc3c(c(=O)n1C2)COC(=O)[C@@]3(CC)OC(=O)CCCCCCC(=O)NO`, the pIC50 was 6.21.

System: not listed separately
Assay: Stability of the compound in PBS at pH 7.4 at 50 uM by HPLC analysis
Type: physicochemical
Conditions: buffer, pH 7.4, 50 µM

In the case of `CCc1c2c(nc3ccc(O)cc13)-c1cc3c(c(=O)n1C2)COC(=O)[C@@]3(CC)OC(=O)CCCCCCC(=O)NO`, the Stability was “Stable”.

Biological target: Histone deacetylase 1 (Homo sapiens, UniProt Q13547)
Assay: Inhibition of recombinant human HDAC1 expressed in baculovirus infected High5 insect cells using Ac-Lys-Tyr-Lys(epsilon-acetyl)-AMC as substrate after 24 hrs by fluorescence assay
Conditions: not given

Chain of Histone deacetylase 1 (Q13547 whole entry): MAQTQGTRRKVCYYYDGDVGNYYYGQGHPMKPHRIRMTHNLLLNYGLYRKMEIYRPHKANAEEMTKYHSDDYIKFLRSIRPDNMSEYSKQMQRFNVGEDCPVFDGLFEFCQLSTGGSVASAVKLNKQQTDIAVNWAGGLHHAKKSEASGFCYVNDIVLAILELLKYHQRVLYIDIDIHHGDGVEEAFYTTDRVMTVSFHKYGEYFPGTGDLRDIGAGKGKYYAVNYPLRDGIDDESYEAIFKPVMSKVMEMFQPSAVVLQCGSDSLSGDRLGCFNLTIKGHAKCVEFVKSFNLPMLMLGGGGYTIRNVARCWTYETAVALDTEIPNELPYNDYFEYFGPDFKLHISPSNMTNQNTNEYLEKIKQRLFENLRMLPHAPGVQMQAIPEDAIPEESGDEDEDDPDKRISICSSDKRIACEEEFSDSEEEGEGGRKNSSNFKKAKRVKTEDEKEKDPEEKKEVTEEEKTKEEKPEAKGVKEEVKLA

Going from `CCc1c2c(nc3ccc(O)cc13)-c1cc3c(c(=O)n1C2)COC(=O)[C@@]3(CC)OC(=O)CCCCCCC(=O)NO` to `CCc1c2c(nc3ccc(O)cc13)-c1cc3c(c(=O)n1C2)COC(=O)[C@@]3(CC)OC(=O)CCCCCCCC(=O)NO`, the pIC50 falls from 7.05 to 6.01 (1.04 log units).

`CCc1c2c(nc3ccc(O)cc13)-c1cc3c(c(=O)n1C2)COC(=O)[C@@]3(CC)OC(=O)CCCCCCCCCCC(=O)NO` gave a pIC50 of 4.90.
